One compound from US20180318291A1, “USE OF AMINOTHIAZOLE MYD88 SPECIFIC INHIBITOR TJM2010-5” (WUHAN INNAMUNE PHARMACEUTICAL INC. LTD., priority 2015, published 2018) can be followed below.

Structures are written as SMILES.

Assay [1] has as its system inflammatory factors (IL-1β, TNF-α, IL-6) in graft. As to the kind of experiment: real time quantitative PCR of inflammatory factors in graft. It counts as in vivo, mice. The text has this: 1. Extract the total RNA from the receptor receiving antigen (homogenic, allogenic) stimulation by the TRIzol method;
2. Reversely transcribe them to cDNA by the two-step method of RT-PCR;
3. Make the standard curve to compare the measured relative level of IL-1β, TNF-α, IL-6.

For assay [2], the system named is heart of Balb/c mice transplanted to C57bl/6 mice. As to the kind of experiment: mice heart transplantation model (graft survival). As to conditions: Balb/c heart to C57bl/6; 150 mg/kg intraperitoneal day 0 to day 6; survive up to 100 days. It counts as in vivo. From the text:
1) Application of TJM2010-5 in Mice Heart Transplantation Model
Four groups are set in the experiment, which are: control group (conducting heart transplantation without any treatment), CMC group (vehicle control group), TJM2010-5 treatment group (effect detection group) and ciclosporinA (CsA) control group. The specific treatment methods as follows:
Control group: Take and transplant the heart of Balb/c mice to the abdominal cavity of C57bl/6 mice, and no special treatment is provided after operation;
CMC control group: Take and transplant the heart of Balb/c mice to the abdominal cavity of C57bl/6 mice, and provide intraperitoneal injection of sodium carboxymethyl cellulose (0.5% CMC) solution without TJM2010-5 on day 0 to day 6 after the heart transplantation, and the dose is 200 μl.
TJM2010-5 treatment group: Take and transplant the heart of Balb/c mice to the abdominal cavity of C57bl/6 mice, and provide intraperitoneal injection of TJM2010-5 dissolved in CMC on day 0 to day 6 after the heart transplantation, and the dose is 150 mg/kg.
CsA treatment group: Take and transplant the heart of Balb/c mice to the abdominal cavity of C57bl/6 mice, and provide intraperitoneal injection of CsA on day 0 to day 6 after the heart transplantation, and the dose is 15 mg/kg/day. […]

A further assay concerns DC. As to the kind of experiment: CD80/CD86 expression on bone marrow DC by flow cytometry. In kind it is cell-based, mice. As for the experimental part: 1. Derive the bone marrow cell from the BALB/c mice administrated with TJM2010-5, destruct the red blood cell, and place them into the RPMI1640 medium with the concentration of 2×10^6/ML (adding GM-CSF of 10 ng/ml, IL-4 of 10 ng/ml);
2. Remove the suspension cell 48 hours later, and collect the suspension and anchorage-dependent cell on day 6.
3. Place DCs into […] of TJM2010-5 for cultivating for 1 hour, add necrotic myocardium supernate, LPS (200 ng/ml), Poly I:C (20 mg/ml), CpG (10 mg/ml) to cultivate the cells for 12 hours.
4. Add the flow antibody FITC to label anti-CD80, CD86, and conduct detection with machine.
DC: Place the cells into a 48-pore plate, the number of cells is 1×10^6/pore, and 1 ml of medium system is added to each pore. Firstly, add TJM2010-5 of different concentration gradients to pre-incubate the cells for 2 h, then, add the LPS to get the final concentration of 1 ug/ml, and then incubate them in CO2 incubator at 37° C. for one night (12 h).
Add the flow antibody FITC to label anti-CD80, CD86, and conduct detection with machine.

Another assay deals with NOD mice. As to the kind of experiment: diabetes mellitus type I model in NOD mice. The following applies: 150 mg/kg/d intraperitoneal, observed 30 weeks, FIG. 4. It counts as in vivo. As for the experimental part:
1. Experimental groups: MyD88KO NOD mice, MyD88KO/+NOD mice, NOD mice TJM2010-5 treatment group.
2. Treatment group: Provide intraperitoneal injection of TJM2010-5 dissolved in 0.5% CMC of 150 mg/kg/d on the day before antigen injection, and on day 0 to day 3, and day 5, 7, 9, 11, 13 and 15 day after injection.
3. Provide intraperitoneal injection of mycobacterium antigen to mice in each group and monitor the concentration constantly.
4. Feed in clean level and observe for 30 weeks, and take the tail venous blood to test the non-fasting blood-glucose. The standard for diabetes modeling is obtaining the blood-glucose no less than 22 mmol/L for 2 times successively.

The test system of the next assay is T cells. As to the kind of experiment: activation of T cells (FIG. 3a). It counts as cell-based.

Take `O=C(CCN1CCN(Cc2ccccc2)CC1)Nc1nc(-c2ccccc2)cs1` [TJM2010-5, 3-(4-benzylpiperazin-1-yl)-N-(4-phenylthiazol-2-yl) propanamide]: in assay [1] (FIG. 9), the “level of inflammatory factors (IL-1β, TNF-α, IL-6) in heart graft vs control group” value is given as “significantly lower than that of control group”. Besides, the “level of IL-1β in graft vs CMC allogeneic transplantation group” value in assay [1] (FIG. 9a) is recorded as “significantly lower than those in CMC allogeneic transplantation group”. The “level of IL-6 in graft vs CMC allogeneic transplantation group” value in assay [1] (FIG. 9c) is “significantly lower than those in CMC allogeneic transplantation group”. Further, the “heart allograft surviving up to 100 days” value in assay [2] amounted to 80%. The “up-regulation of costimulatory molecules CD80/CD86 incurred by LPS, CpG” value in the assay with DC is given as “inhibit up-regulation”. For the same compound, the “expression of CD80 on DC surface” value in the assay with DC (DC, 2 h pre-incubation, LPS 1 ug/ml, 12 h, FIG. 3c) is listed as “concentration-dependent inhibition”. Also, the “CD80 expression on DC stimulated by LPS, CPG, cardiac tissue homogenate” value with DC (FIG. 3b) is “down-regulate”. Also, the “incidence rate of diabetes mellitus type I” value in the assay with NOD mice is listed as “equivalent to that of MyD88KO homozygote group”. The “activation of T cells” value in the assay on T cells is listed as “dose-dependently reduce”.
